As a reminder, the Ki is a measure of affinity in units of concentration, obtained from inhibition or displacement. High values mean weaker binding, low ones tighter binding.

Assay [1] deals with Mus musculus. As to the kind of experiment: Percent recovery of tyrosine hydroxylase immunostaining in mice following 10 mg/kg p.o. administration after lesioning with MPTP. It counts as functional, organism-based. Details: dose 10 mg/kg. The settings on record: at 10 mg/kg.
The target in assay [2] is Peptidyl-prolyl cis-trans isomerase FKBP1A (Homo sapiens, UniProt P62942). The experiment in a line: Inhibitory activity against FK506 binding protein 12.
Peptidyl-prolyl cis-trans isomerase FKBP1A, sequence (P62942 whole entry): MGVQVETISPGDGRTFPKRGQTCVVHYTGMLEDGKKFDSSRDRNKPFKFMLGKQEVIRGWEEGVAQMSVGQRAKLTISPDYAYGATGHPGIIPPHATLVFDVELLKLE
The species named for assay [3] is Gallus gallus. As to the kind of experiment: In vitro promotion of fiber extension (neurite outgrowth) from cultured chick sensory neuron. It counts as functional. The settings on record: read-out: ED50 (the source's name).
The test system of assay [4] is Mus musculus. As to the kind of experiment: Percent recovery of tyrosine hydroxylase immunostaining after oral administration at dose 10 mg/kg concurrently with MPTP. It counts as functional, organism-based. Details: dose 10 mg/kg.
Assay [5] has as its system Mus musculus. As to the kind of experiment: Percent recovery of vtyrosine hydroxylase immunostaining after oral administration at dose 10 mg/kg after lesioning with MPTP (post-MPTP). It counts as functional, organism-based. More on the design: dose 10 mg/kg.
Assay [6] concerns Mus musculus. The experiment in a line: Percent recovery of tyrosine hydroxylase immunostaining after peroral administration at dose 10 mg/kg after lesioning with MPTP (post-MPTP). Format: functional, organism-based. More on the design: dose 10 mg/kg.
The subject of assay [7] is Mus musculus. The experiment in a line: Percent recovery of tyrosine hydroxylase immunostaining after oral administration at dose 10 mg/kg after lesioning with MPTP (post-MPTP). Details: dose 10 mg/kg. Format: functional, organism-based.

A value given as a limit tells only on which side of the number the result lay.

With `CCC(C)(C)C(=O)C(=O)N1CCC[C@H]1C(=O)NC(CCc1ccccc1)CCc1ccccc1`, in assay [1], the Recovery is 6.9%.

For `CC(C)(C)C(=O)C(=O)N1CCC[C@H]1C(=O)NCCCc1ccccc1`, the Recovery in assay [1] turned out to be 28.1%. On to `CCC(C)(C)C(=O)C(=O)N1CCC[C@H]1C(=O)NCCCc1cccnc1`, for which the affinity in assay [2], expressed as Ki, was 820 nM. The molecule further had a Recovery in assay [1] of 4.7%. `CC(C)(C)C(=O)C(=O)N1CCCC[C@H]1C(=O)NCCCCc1ccccc1`: the Recovery in assay [1] is 44.9%. Consider `CCC(C)(C)C(=O)C(=O)N1CCC[C@H]1C(=O)SCCc1ccccc1`, for which the EC50 in assay [3] was 0.77 nM. The Recovery was 31.4% in assay [1] and 66% in assay [4]. In turn, `CCC(C)(C)C(=O)C(=O)N1CCCC[C@H]1C(=O)NCCCCc1ccc(O)cc1` had a Recovery in assay [1] of 60.4%.

The molecule `O=C(C(=O)N1CCC[C@H]1C(=O)SCCCc1ccccc1)C1CCCCC1` had a Recovery in assay [4] of 52%. As to `CCC(C)(C)C(=O)C(=O)N1CCC[C@H]1C(=O)SCCCc1ccc(OC)cc1`, the EC50 in assay [3] came out at 0.01 nM.

`CCC(C)(C)C(=O)C(=O)N1CCCC[C@H]1C(=O)SCCCc1ccccc1` showed a Recovery in assay [5] of 30%. For the molecule `CCC(C)(C)C(=O)C(=O)N1CCC[C@H]1C(=O)SCCCc1ccccc1`, the EC50 in assay [3] is less than 0.01 nM. The same molecule came in with a Recovery in assay [4] of 72%.

The molecule `CCC(C)(C)C(=O)C(=O)N1CCC[C@H]1C(=O)NCCCCc1ccccc1` showed a Recovery in assay [1] of 50.1%. As for `CCC(C)(C)C(=O)C(=O)N1CCC[C@H]1C(=O)SCCCCc1ccccc1`, the Recovery in assay [4] worked out at 48%.

For the molecule `CCC(C)(C)C(=O)C(=O)N1CCC[C@H]1C(=O)SCCCc1cccnc1`, the Recovery in assay [4] was found to be 31%. Turning to `CCC(C)(C)C(=O)C(=O)N1CCC[C@H]1C(=O)OCCCc1cccnc1` [GPI-1046], in assay [3], the EC50 stood at 0.06 nM. Besides, the Recovery in assay [4] worked out at 43%; in assay [6], 35%. Consider `CCC(C)(C)C(=O)C(=O)N1CCCC[C@H]1C(=O)SCCC(c1ccccc1)c1ccccc1`, for which the Recovery came to 72% in assay [1] and 81% in assay [4]. Regarding `CCC(C)(C)C(=O)C(=O)N1CCC[C@H]1C(=O)N(C)CCCc1ccccc1`, in assay [1], the Recovery is 20.5%. Take `CCC(C)(C)C(=O)C(=O)N1CCC[C@H]1C(=O)SCCCc1ccc2ccccc2c1`: the Recovery in assay [7] was 10%; in assay [4], 36%.

In the case of `CCC(C)(C)C(=O)C(=O)N1CCC[C@H]1C(=O)SCCCc1ccc(C(F)(F)F)cc1`, the results for the Recovery in assay [7] and in assay [4] were 34% and 71%, respectively. Molecule `CCC(C)(C)C(=O)C(=O)N1CCCC[C@H]1C(=O)NCCCCc1cccnc1` gave a Recovery in assay [1] of 29.4%.

On to `CCC(C)(C)C(=O)C(=O)N1CCC[C@H]1C(=O)NC`, for which, in assay [1], the Recovery came to 16.1%. The same measure, in the same setting: under `CCC(C)(C)C(=O)C(=O)N1CCC[C@H]1C(=O)NCCCc1ccc(O)cc1` stands 1.8%; under `CCC(C)(C)C(=O)C(=O)N1CCCC[C@H]1C(=O)NC`, 31.6%. For `CCC(C)(C)C(=O)C(=O)N1CCCC[C@H]1C(=O)NCCCCCc1ccccc1`, in assay [1], the Recovery turned out to be 37.4%. As to `O=C(C(=O)N1CCC[C@H]1C(=O)SCCc1ccccc1)C1CCCC1`, the Recovery in assay [4] was found to be 41%. Turning to `O=C(C(=O)N1CCCC[C@H]1C(=O)NCCCCc1ccccc1)c1ccccc1`, in assay [1], the Recovery was 18.7%. `CCC(C)(C)C(=O)C(=O)N1CCCC[C@H]1C(=O)NCCC(c1ccccc1)c1ccccc1` displayed a Ki in assay [2] of 420 nM. In assay [1], this molecule had a Recovery of 41.9%.

On to `CCC(C)(C)C(=O)C(=O)N1CCCC[C@H]1C(=O)NCCCCc1ccccc1`, for which the Recovery in assay [1] worked out at 54.1%. `CCC(C)(C)C(=O)C(=O)N1CCCC[C@H]1C(=O)SCCc1ccccc1` showed a Recovery in assay [4] of 73%. In assay [1], `CCC(C)(C)C(=O)C(=O)N1CCCC[C@H]1C(=O)NCCCc1ccccc1` gave a Recovery of 65.3%.

On to `CCC(C)(C)C(=O)C(=O)N1CCC[C@H]1C(=O)NCCc1ccccc1`, for which, in assay [1], the Recovery worked out at 44.1%. On to `CCC(C)(C)C(=O)C(=O)N1CCC[C@H]1C(=O)NCCCc1ccccc1`, for which the Ki in assay [2] is 1100 nM. Moreover, the Recovery in assay [7] is 39%. As for `CCC(C)(C)C(=O)C(=O)N1CCC[C@H]1C(=O)SCCC(c1ccccc1)c1ccccc1`, the values for the Recovery in assay [7] and in assay [4] were 37% and 39%, respectively.

The values are drawn from ChEMBL document CHEMBL1135538, “Synthesis of N-glyoxyl prolyl and pipecolyl amides and thioesters and evaluation of their in vitro and in vivo nerve regenerative effects” (J Med Chem, 2002).
